pIC50: −log10 of the molar value.

For test [1], the target named is phosphatidylserine synthase 1 (PSS1) (Homo sapiens, UniProt P48651). Briefly: cryo-EM structure at […] Å. The class given is biochemical.
Test [2] concerns the target phosphatidylserine synthase 1 (PSS1) (Homo sapiens, UniProt P48651, P269S). The class given is biochemical.

As a reminder, the pIC50 is the negative decadic logarithm of the IC50, by convention in mol/L. Read a high pIC50 as a low IC50. For the compound `CC(F)(F)CN1C(=O)c2[nH]nc(-c3cccc4[nH]c(=O)oc34)c2[C@@H]1c1ccc(Oc2cc(C(F)(F)F)cc(C(F)(F)F)c2)cc1` [DS, DS55980254], the pIC50 in test [1] was 5.78; in test [2], 5.90.

Source of the values: PMC11455612 (Cell, 2024).
